Converted amounts (≈) assume the structure as drawn.
Settings: buffer; pH 7.4; 200.0 µM

Row | Structure (SMILES) | solubility kinetic [µg/mL]
1 | C[N+](C)(C)CC#CCN1CCCC1=O.[I-] | > 48.3
2 | Nc1nc(NCCOCCO)nc(NCc2ccccc2)c1[N+](=O)[O-] | > 52.3
3 | FC(F)(F)c1ccc(NC(=S)NC2CCCCC2)cc1 | 2.5 (≈ 8.27 µM)
4 | COC(=O)C1CCN(c2cnccn2)CC1 | > 33.2
5 | O=C(CNC(=O)c1cc(Cl)cc([N+](=O)[O-])c1)NC1CC1 | > 44.7
6 | N#Cc1ccccc1NC(=S)NC(=O)c1cccs1 | 30.7 (≈ 107 µM)
7 | Cc1ccc(C)c(N2N=C(C(=O)O)CCC2=O)c1 | > 36.9
8 | Cn1c(C(=O)O)cc2c(=O)n3ccccc3nc21 | > 36.5
9 | CC(=O)Nc1nonc1-c1nc2ccccc2n1C | 3.1 (≈ 12.1 µM)
10 | O=C1CC(c2ccccc2)CN1 (stereo not given) | > 24.2
11 | Cc1cccc(NC(=O)NCCN2CCCCC2)c1 | > 39.2
12 | O=C(NCc1c[nH]c2ccccc12)c1ccccc1 | > 37.5
13 | COc1cc(OC)nc(Oc2ccccc2/C=N/O)n1 | > 41.3
14 | CC1CN=C(Nc2ccc(F)cc2)S1 (stereo not given) | > 31.5
15 | CCCNC(=O)C12CCC(C)(C(=O)O1)C2(C)C (stereo not given) | > 35.9
16 | Cc1cccc(C)c1NC(=O)c1cccnc1 | 33.1 (≈ 146 µM)
17 | CC(=O)c1cc2c(cc1NC(=O)C1CN(C(C)=O)c3ccccc3O1)OCO2 (stereo not given) | 6.3 (≈ 16.5 µM)
18 | CC(=O)N(C)N(C)c1cc(C)nc(N)n1 | > 31.4
19 | O=S(=O)(NCCc1ccc(Cl)cc1)c1cccs1 | > 45.3

Row | Structure (SMILES) | solubility kinetic [µg/mL]
20 | COc1cc(Cl)c(C)cc1NC(=O)CN1CCCCCC1 | < 0.3
21 | COc1ccc(Nc2cc(Nc3cccc(OC)c3)ncn2)cc1 | 0.5 (≈ 1.55 µM)
22 | CCOC(=O)N1CCN(c2nc(-c3ccccc3)c3ccccc3n2)CC1 | < 0.2
23 | COC(=O)C1CCN(C(=O)COC(=O)/C=C/c2ccc(O)c(OC)c2)CC1 | > 56.6
24 | OC1/C(=C/c2ccc(Cl)cc2Cl)N2CCC1CC2 (stereo not given) | 28 (≈ 98.5 µM)
25 | Cn1cc(C(=O)Nc2ccccn2)c(=O)c2ccccc21 | 1.3 (≈ 4.65 µM)
26 | Cc1cc(C(=O)OCC(=O)NCc2ccco2)c(C)o1 | > 41.6
27 | Cl.Clc1ccccc1CNCc1ccncc1 | 38.9
28 | CC1(C)Cc2nc(-c3ccccc3)nc(SCC(O)CO)c2CO1 (stereo not given) | 51.7 (≈ 149 µM)
29 | Cc1ccc(C(C)C)c(OCC#CCN2CCCC2)c1.O=C(O)C(=O)O | 25.7
30 | c1csc(-c2cn3ccc4ccccc4c3n2)c1 | 10.7 (≈ 42.7 µM)
31 | CCOc1ncccc1C(=O)OC(C)C(=O)Nc1ccc(CC)cc1 (stereo not given) | 7.1 (≈ 20.7 µM)
32 | O=C1C2C3CCC(O3)C2C(=O)N1c1cccc(F)c1 (stereo not given) | 39.2 (≈ 150 µM)
33 | COc1cccc(N2C(=O)C3C(C2=O)C3(c2ccccc2)c2ccccc2)c1 (stereo not given) | 6.3 (≈ 17.1 µM)
34 | CCCN1CCC(NC(=O)Nc2cc(Cl)ccc2OC)CC1 | 47.6 (≈ 146 µM)
35 | Cc1cccc(NC(=O)COC(=O)CN2CCCCCC2=O)c1C | > 49.9
36 | COc1ccccc1C(=O)NCC(=O)Nc1cccnc1 | > 42.8
37 | CC(C(=O)NCC1CCCCC1)N(C)Cc1ccc(Cl)cc1 (stereo not given) | 19.5 (≈ 60.4 µM)
38 | CC1(C)CC(=O)c2sc(NS(=O)(=O)c3ccc(Cl)cc3)nc2C1 | > 55.6

Row | Structure (SMILES) | solubility kinetic [µg/mL]
39 | CCCc1nc2oc3c(Cl)ncnc3c2c2c1CCCC2 | < 0.2
40 | COc1ccc(CNC2CCCc3ccccc32)c(OC)c1 (stereo not given) | 31.4 (≈ 106 µM)
41 | COc1ccc(S(=O)(=O)N2CCN(C)CC2)cn1 | > 40.7
42 | CN(C)C(CNC(=O)c1ccc2nccnc2c1)c1ccco1 (stereo not given) | 46.5 (≈ 150 µM)
43 | COc1ccc(S(=O)(=O)NCc2ccccn2)c(C)c1C | 32.8 (≈ 107 µM)
44 | CC(=O)NCCc1ccc(C(=O)COC(=O)c2ccco2)cc1 | > 47.3
45 | Cc1ccc[n+](CC(=O)Nc2ccc(Cl)c([N+](=O)[O-])c2)c1.[Cl-] | > 51.3
46 | CCNC(=O)c1cnn(-c2ccccc2)c1-c1ccccc1 | > 43.7
47 | CCOc1ccc(C(C)NC(=S)NCc2ccc(F)cc2)cc1 (stereo not given) | 2.8 (≈ 8.42 µM)
48 | CC1CN(C(=O)c2ccc([N+](=O)[O-])s2)CC(C)O1 (stereo not given) | > 40.5
49 | O=C(Nc1ccccc1)c1cc([N+](=O)[O-])ccc1N1CCCCC1 | 1.7 (≈ 5.22 µM)
50 | Cc1ccc(OCCNC(=O)C(C)SCC(=O)Nc2ccc(F)cc2)cc1 (stereo not given) | 35 (≈ 89.6 µM)
51 | Cc1cc(N2CCCCC2)nc2c(C)cccc12 | < 0.3
52 | COC(=O)CN1C(=O)NC2(CCCc3ccccc32)C1=O (stereo not given) | > 43.2
53 | C=CCc1c(C)nc(N2CCSCC2)[nH]c1=O | 32 (≈ 127 µM)
54 | O=C(NCCC1CC1(Cl)Cl)Nc1ccccc1 (stereo not given) | > 41
55 | Cc1cc(Cl)ccc1OCC(=O)Nc1ccncc1 | > 41.5
56 | CN(c1ccc(OCC(=O)Nc2ccccc2C(=O)O)cc1)S(=O)(=O)c1ccc(Cl)cc1 | > 71.2
57 | Cn1ccnc1COc1ccc(C=O)cc1 | > 32.4

Continued, values first:

Row | solubility kinetic [µg/mL] | Structure (SMILES)
58 | > 45.3 | CCN(CC(=O)Nc1cccc(OC)c1)C(=O)c1ccco1
59 | > 52.9 | O=C(COc1ccc(S(=O)(=O)NC2CCCCC2)cc1)NC1CC1
60 | 33.5 (≈ 104 µM) | CCOc1cc(C2C(C#N)=C(N)Oc3cc(N)ccc32)ccc1O (stereo not given)
61 | > 47.5 | COc1ccc(NC(=S)NCc2ccc3c(c2)OCO3)cc1
62 | 38.8 (≈ 149 µM) | Cc1cccc(C)c1NC(=O)N1CCCCCCC1
63 | 5.4 (≈ 15.9 µM) | COC(=O)C1=C(C)N(C)C(=O)NC1c1c(OC)ccc2ccccc12 (stereo not given)
64 | > 57.2 | CC1(c2ccc(OC(F)F)cc2)NC(=O)N(CC(=O)NC2CCCC2)C1=O (stereo not given)
65 | 32 (≈ 98.6 µM) | COc1ccc(C(=O)NCCc2c[nH]c3ccccc23)cc1OC
66 | > 43.6 | CC(C)(C)c1ccc(C(=O)NCCN2CCOCC2)cc1
67 | > 49.6 | COc1ccc(C(=O)NCCNC(=O)c2cnccn2)cc1OC
68 | 37.4 (≈ 131 µM) | O=C(NCCCc1nc2ccccc2[nH]1)c1cccs1
69 | 17.2 (≈ 51.7 µM) | O=C(CCC(=O)NC12CC3CC(CC(C3)C1)C2)NC1CCCCC1
70 | < 0.2 | Brc1cccc(Nc2nc(-c3cccnc3)cs2)c1
71 | > 43.6 | Cc1ccc(C(=O)NC(=O)CSc2nncn2C)cc1
72 | 1.4 (≈ 4.98 µM) | COc1ccccc1NC(=O)Nc1ccc(CC#N)cc1
73 | 3.3 (≈ 10.4 µM) | CN(C)c1cc(-c2ccc(Cl)cc2Cl)oc(=O)c1Cl
74 | 6.1 (≈ 16.7 µM) | O=C(Nc1nccs1)c1ccc(N2C(=O)[C@@H]3[C@H](C2=O)[C@H]2C=C[C@@H]3C2)cc1
75 | 50.5 (≈ 148 µM) | CN1CCN(C(=O)c2cc(=O)c3cc(Cl)cc(Cl)c3o2)CC1
76 | > 47.1 | CC1CCCC(C)N1CC(O)COCc1ccccc1.Cl (stereo not given)
77 | 1.9 (≈ 7.05 µM) | CC(C)CCCC(C)CCOC(=O)CN1CCCC1 (stereo not given)
78 | > 47 | O=C(O)c1ccc(Nc2nc(-c3cccnc3)cs2)cc1O

Row | solubility kinetic [µg/mL] | Structure (SMILES)
79 | 3.1 (≈ 8.46 µM) | Cc1ccc(S(N)(=O)=O)cc1NC(=O)c1ccc2c3c(cccc13)CC2
80 | 32.6 (≈ 135 µM) | CN(C)C(CNc1ncccn1)c1ccccc1 (stereo not given)
81 | 29.7 (≈ 113 µM) | COCC(C)NC(=O)c1cc2cc(OC)ccc2[nH]1 (stereo not given)
82 | 49.3 (≈ 130 µM) | CCN1CCN(C(CNS(=O)(=O)c2cccs2)c2cccnc2)CC1 (stereo not given)
83 | > 48.8 | CC(=O)Nc1ccc(S(=O)(=O)N(C)C2CCN(C)CC2)cc1
84 | > 38.6 | O=C(c1cc(Br)c[nH]1)N1CCCCC1
85 | > 44.3 | Cc1ccc(N2C(=O)CN=C2Nc2nc(C)cc(C)n2)cc1
86 | > 62.6 | CN(C)CCOC(=O)CCCCCCCCC(=O)OCCN(C)C.Cl
87 | < 0.4 | O=C(NC(=S)NCc1ccccc1)c1ccccc1Br
88 | 8.8 (≈ 17.7 µM) | CC1CCCN(S(=O)(=O)c2cccc(C(=O)OCC(=O)N(C)Cc3c(F)cccc3Cl)c2)C1 (stereo not given)
89 | 38.2 (≈ 116 µM) | CCOC(=O)Cn1cnc2scc(-c3ccc(C)cc3)c2c1=O
90 | 12 (≈ 36.4 µM) | CSc1nc(-c2ccccc2)nc(N2CCOCC2)c1C(C)=O
91 | > 61.1 | CN1CCN(c2nc3ccccc3nc2C(C#N)S(=O)(=O)c2ccccc2)CC1 (stereo not given)
92 | 36.9 (≈ 148 µM) | CC(=O)c1cccn1S(=O)(=O)c1ccccc1
93 | > 54.5 | COc1ccc(CN(C)C(=O)c2ccc3c(=O)n4c(nc3c2)CCC4)cc1
94 | > 53.6 | COc1ccc(CNC(=O)CSc2nc3ccc(OC)cc3[nH]2)cc1
95 | 2.7 (≈ 8.89 µM) | O=C(CCl)N1c2ccccc2SCC1c1ccccc1 (stereo not given)
96 | 1.1 (≈ 2.96 µM) | CC(=O)c1sc(-c2ccccc2)cc1NS(=O)(=O)c1ccc(C)cc1
97 | 11.6 (≈ 38.1 µM) | Cc1cccc(NC(=O)C(Cc2ccccc2)n2cccc2)c1 (stereo not given)
98 | 13 (≈ 26.9 µM) | CN(c1ccccc1)S(=O)(=O)c1cccc(NC(=O)CCNC(=O)c2ccc([N+](=O)[O-])cc2)c1
99 | 24 (≈ 84.7 µM) | CC1(C)CC(=O)C=C(Nc2cccc(C(F)(F)F)c2)C1

Row | solubility kinetic [µg/mL] | Structure (SMILES)
100 | > 44.5 | Cc1cccc(NC(=O)CCN2CCCC(C)C2)c1.Cl (stereo not given)
101 | 44.7 (≈ 141 µM) | Cc1ccc(NC(=O)COC(=O)CNC(=O)c2ccco2)cc1
102 | > 33.9 | CN(C)/C=C/c1[nH]c(=O)[nH]c(=O)c1[N+](=O)[O-]
103 | > 46.6 | COc1ccc(CNC(=O)N[C@H](C(=O)O)C(C)C)cc1OC
104 | > 42.4 | O=C1CCCN1CCCNS(=O)(=O)c1ccccc1
105 | 1.9 (≈ 5.86 µM) | COc1ccc(NC(=O)c2ccc3[nH]c(C)c(C)c3c2)c(OC)c1
106 | > 34.7 | COCCCNC(=S)N1CCN(C)CC1
107 | 7.3 (≈ 26.9 µM) | N#CC(=C=[N-])c1nc2ccccc2nc1-[n+]1ccccc1
108 | > 53.8 | Cc1c(NC(=O)Nc2ccc(F)cc2F)c(=O)n(-c2ccccc2)n1C
109 | 5.7 (≈ 18.3 µM) | CC(C)Cn1c(-c2ccc(Br)cc2)c[nH]c1=S
110 | 21.5 (≈ 68.9 µM) | O=C(NCCSCc1ccc(Cl)cc1)c1cccs1
111 | 7.3 (≈ 25.6 µM) | O=C(c1ccccc1)c1cc2c(cc1[N+](=O)[O-])OCCO2
112 | 15.1 (≈ 52.7 µM) | COc1ccccc1-n1cnc2sc(C)c(C)c2c1=O
113 | 13.1 (≈ 29.9 µM) | O=C(Nc1cccc(S(=O)(=O)N2CCCCCC2)c1)c1cncc(Br)c1
114 | > 58.8 | Cc1nnc(SCC(=O)Nc2ccc(OC(F)F)c(Cl)c2)n(N)c1=O
115 | < 0.3 | Cc1ccc2cc(NC(=O)c3ccc(C(C)(C)C)cc3)ccc2n1
116 | 3.5 (≈ 7.12 µM) | O=C(c1ccc(C(=O)N2CCN(c3ccccc3F)CC2)nc1)N1CCN(c2ccccc2F)CC1
117 | 12.4 (≈ 96 µM) | c1ccc2ncccc2c1
118 | 2.9 (≈ 9.02 µM) | COc1ccc(OC)c(NC(=O)COC(=O)C2CCCCC2)c1
119 | 32.4 (≈ 92.7 µM) | O=C(N[C@@H](Cc1ccccc1)C(=O)OCc1ccccc1)c1ccco1
120 | 41.2 (≈ 139 µM) | O=C1NC(=Nc2cccc([N+](=O)[O-])c2)SC1(CO)CO

— PubChem BioAssay AID1996
